In patent US11286256B2, “Bicyclic inhibitors of histone deacetylase” (Alkermes, Inc., priority 2017, dated 2022):
Like-named read-outs stand apart in the source and are kept apart here.

What was measured:
[1] = tested on: human erythroid progenitors (CFU-E, BFU-E); assay: Erythroid CFU assay in human bone marrow cells; assay type: cell-based; details: 10 μM, 14 days culture, human bone marrow cells
Procedure: Compounds were tested to evaluate the potential effects on human erythroid and myeloid progenitors using colony forming cell assays. Clonogenic progenitors of human erythroid (CFU-E, BFU-E), granulocyte-monocyte (CFU-GM) and multipotential (CFU-GEMM) lineages were assessed in a semi-solid methylcellulose-based media formulation containing rhlL-3 (10 ng/mL), rhGM-SCF (10 ng/mL), rhSCF (50 ng/mL) and Epo (3 U/mL).
Normal human bone marrow light density cells derived from normal bone marrow (NorCal Biologics, California) and qualified at ReachBio, were stored in the gaseous phase of liquid nitrogen (−152° C.) until required for the assay. On the day of the experiment, the cells were thawed rapidly, the contents of each vial was diluted in 10 mL of Iscove's modified Dulbecco's medium containing 10% fetal bovine serum (IMDM+10% FBS) and washed by centrifugation (approximately 1200 r.p.m. for 10 minutes, room temperature). The supernatant was discarded and the cell pellets resuspended in a known volume of IMDM+10% FBS. A cell count (3% glacial acetic acid) and viability assessment (trypan blue exclusion test) was performed for the bone marrow sample.
On the day of the experiment, the compounds were dissolved in DMSO to a stock concentration of 10 mM. Serial dilutions were prepared from the stock concentration to achieve concentrations of 2 and 0.4 mM. When added to the methylcellulose-based media at 1:1000 (v/v), the final test concentrations of 10, 2 and 0.4 μM were achieved. Additionally, 5-FU was evaluated at 1.0, 0.1 and 0.01 μg/mL.
Clonogenic progenitors of the human erythroid (CFU-E and BFU-E) and myeloid (CFU-GM) lineages were set up in the methylcellulose-based media formulations described above. All compounds were added to the medium to give the final desired concentrations (10, 2 and 0.4 μM). 5-Fluorouracil (Sigma Aldrich) was used as a positive control for progenitor proliferation (inhibition of colony growth) and was introduced to the human bone marrow cultures at 1.0, 0.1, and 0.01 μg/mL. Solvent control cultures (containing no compound but 0.1% DMSO) as well as standard controls (containing no compound and no DMSO) were also initiated.
Human myeloid and erythroid progenitor assays were initiated at 2.0×10^4 cells per culture. Following 14 days in culture, myeloid and erythroid colonies were assessed microscopically and scored by trained personnel. The colonies were divided into the following categories based on size and morphology: CFU-E, BFU-E, CFU-GM and CFU-GEMM.
The mean±one standard deviation of three replicate cultures was calculated for progenitors of each category (CFU-E, BFU-E, etc.). Two-tailed t-tests were performed to assess if there was a difference in the number of colonies generated between solvent control and treated cultures. Due to the potential subjectivity of colony enumeration, a p value of less than 0.01 is deemed significant. To calculate the concentration of 50% inhibition of colony growth (IC50) for each compound, a dose response curve was generated plotting the log of the compound concentration versus the percentage of control colony growth using XLfit software (IDBS). The concentration of 50% inhibition of colony growth (IC50) was calculated based on the sigmoid curve fit using Dose-Response, One-Site Model formula: y=A+[(B−A)/(1+((C/x)^D))], where A=the initial value (baseline response), B=maximum response, C=center (drug concentration that provokes a response halfway between A and B) and D=slope of the curve at midpoint. Further, plots and additional dose response curves were generated using GraphPad Prism 7.0.
Erythroid (CFU-E and BFU-E), myeloid (CFU-GM) and multi-potential (CFU-GEMM) colony enumeration was performed by trained personnel. The distribution of colony types as well as general colony and cellular morphology was analyzed. For statistical analysis colony numbers in compound treated cultures were compared to the solvent control cultures. […]

[2] = Brain and plasma exposure following IV and PO administration to mice; assay type: in vivo; details: for clearance / half-life: plasma; for Mouse IV-PO (1/10 mpk): F: IV 1 mpk / PO 10 mpk
Procedure: Compounds were dosed in mice at either 10 mg/kg or 30 mg/kg PO, and were dosed at 1 mg/kg IV. Three animals for collection at each time point for plasma via bleeding at 0.25, 0.5, 1, 4, 12 and 24 h. Terminal bleeding for plasma and sampling for brain at 0.25, 0.5, 1, 4, 12 and 24 h (also three animals per brain exposure time point group). Total of six time points for plasma and six time points for brain.
Plasma: The animal was restrained manually at the designated time points, approximately 150 μL blood/time point was collected into K2EDTA tube via retro orbital puncture or cardiac puncture under anesthesia with Isoflurane. The blood sample was centrifuged (2000 g, 4° C., 5 min) to generate plasma within 30 min after bleeding.
Brain: At the designated time points, a mid-line incision was made in the animals scalp and the skin was retracted. Using small bone cutters and rongeurs, removed the skull overlying the brain. Removed the brain using a spatula and rinse with cold saline. Placed the brain in screw-top tubes, and then stored the tubes under −70° C. until analysis.

Nc1ccc(-c2ccc(F)cc2)cc1NC(=O)N1Cc2nccnc2C1 [Comparator A]
CFU % Control remaining @ 10 μM Erythroid [1]: 0%

Nc1ccc(-c2cccs2)nc1NC(=O)N1Cc2nccnc2C1 [Comparator C]
CFU % Control remaining @ 10 μM Erythroid [1]: 20%

COCc1cc2c(cn1)CN(C(=O)Nc1nc(-c3ccc(F)cc3F)ccc1N)C2 [Compound 1]
CFU % Control remaining @ 10 μM Erythroid [1]: 57% | Projected Brain Cmax @ 10 mpk ([2]; mouse, 10 mpk, brain): 2460 ng/g | Projected free brain @ 10 mpk ([2]; mouse, 10 mpk, free brain): 1.04 µM | clearance ([2]; 1 mg/kg, mouse, IV, read-out: IV PK Cl (converted)): 11.4 mL/min/kg | half-life ([2]; 1 mg/kg, mouse, IV, read-out: IV PK T ½ (converted)): 2.13 h | half-life ([2]; 10 mpk, mouse, PO, read-out: PK T ½ PO (converted)): 1.97 h

Nc1ccc(-c2cccs2)nc1NC(=O)N1Cc2cncnc2C1 [Comparator E]
CFU % Control remaining @ 10 μM Erythroid [1]: 54% | Mouse IV-PO (1/10 mpk): F [2]: 49% | Mouse PO (10 mpk): Brain Cmax ([2]; brain): 100 ng/g | Mouse PO (10 mpk): Free brain Cmax ([2]; free brain): 35 ng/g

Nc1ccc(-c2ccc(F)cc2)nc1NC(=O)N1Cc2nccnc2C1 [Comparator B]
CFU % Control remaining @ 10 μM Erythroid [1]: 9%

Nc1ccc(-c2ccc(F)cc2)nc1NC(=O)N1Cc2cncnc2C1 [Comparator D]
CFU % Control remaining @ 10 μM Erythroid [1]: 47% | Projected Brain Cmax @ 10 mpk (*scaled for comparison) ([2]; mouse, brain, scaled to 10 mpk for comparison): 158* ng/g

Cc1ncc2c(n1)CN(C(=O)Nc1nc(-c3cccs3)ccc1N)C2 [Compound 2]
CFU % Control remaining @ 10 μM Erythroid [1]: 27% | Mouse IV-PO (1/10 mpk): F [2]: 100% | Mouse PO (10 mpk): Brain Cmax ([2]; brain): 583 ng/g | Mouse PO (10 mpk): Free brain Cmax ([2]; free brain): 173 ng/g | higher brain exposure over the unsubstituted pyrimidine analog ([2]; mouse, relative to Comparator E): > 5 fold | clearance ([2]; 1 mg/kg, mouse, IV 1 mpk, read-out: Mouse IV (1 mpk): Cl (converted)): 69.7 mL/min/kg | half-life ([2]; 1 mg/kg, mouse, IV 1 mpk, read-out: Mouse IV (1 mpk): T1/2 (converted)): 0.839 h | half-life ([2]; 10 mpk, mouse, PO, read-out: Mouse PO (1/10 mpk): T1/2 (converted)): 1.05 h
